Test results taken from PubChem BioAssay AID2060509 (Molecular Pharmacology Branch, DTP, NCI, 2025).
Values joined by “and” are separate entries in the source; they are usually repeats but may differ in a detail not shown here. Equal entries are not always repeated.

System: 485176-168-R4-J1-PDC spheroids with HUVEC/MSC, viability
Experiment: Anticancer human tumor 485176-168-R4-J1-PDC patient-derived pancreatic adenocarcinoma cell line growth inhibition [GQUAD]
Conditions: for viability, T/C: stronger effect = lower value; active = viability on the fitted dose curve at most 10% of control; inactive = the rest
Text: DNA G-quadruplex Stabilizer Agents in Combinations in Complex Spheroids
A high-throughput screen of multi-cell type tumor spheroids was designed to identify active combinations of DNA G-quadruplex stabilizer agents and targeted small molecules. Complex spheroids include a stromal component modeled by human endothelial cells (HUVEC) and fibroblasts modeled by human mesenchymal stem cells (MSCs). The concentration ranges selected for each drug and investigational agent were based upon clinically achievable concentrations if the clinical Cmax of the agent was known.
Compounds. The drugs and investigational agents: pidnarulex (CX-5461; NSC782164), APTO-253 (NSC789042), BRACO-19 (NSC847499), peposertib (NSC802822), ceralasertib (NSC780249), elimusertib (NSC800525), camonsertib (NSC841442), AZD-1390 (NSC803789), olaparib (NSC753686), talazoparib (NSC767125), ART-558 (NSC835418), sotorasib (NSC818433), MRTX-1133 (NSC836407), SN-38 (NSC673596), topotecan (NSC609699), etoposide (NSC141540), doxorubicin (NSC123127), gemcitabine (NSC613327), 5-fluorouracil (NSC19893), paclitaxel (NSC125973), vemurafenib (NSC761431), panobinostat (NSC761190), R-306465 (JNJ-16241199; NSC773264), adavosertib (NSC754352), TP-3654 (NSC805149), carboplatin (NSC241240), KSQ-4279 (NSC840948), and staurosporine (NSC755774) were obtained from the National Cancer Institute (NCI) Developmental Therapeutics Program Chemical Repository (34). The FDA-approved anticancer drug set is available from the NCI Developmental Therapeutics Program. […] The stock solutions were prepared in dimethyl sulfoxide (DMSO, Sigma-Aldrich, St. Louis, MO, cat. D2650) at 800-fold the tested concentration and stored at -70 degrees C prior to their use. All drugs and investigational agents were tested over a range starting from a high concentration at or near the clinical Cmax and decreasing in half-log increments. If the clinical Cmax for an agent had not been determined, the highest concentration tested was 10 microM.
2.3 Cell Culture. All cells were maintained in an incubator at 37 degrees C and 5% CO2 with 95% humidity. The PDC lines were cultured according to standard operating procedures established by the NCI PDMR. All PDCs were thawed and cultured in Matrigel-coated flasks prepared with a working solution of 1X Ham's F-12 nutrient mix, without supplementation (Invitrogen, cat. 11765054), 100 U/mL penicillin-streptomycin (Invitrogen, cat. 15140122), and 2.5% Matrigel (Corning Inc., cat. 354248) for the first three passages. The 857933-349-R-J2-PDC line was cultured in 6C/Colon 1B media, which includes advanced DMEM/F-12 (Thermo Fisher Scientific, cat. 12634028), 10 mM HEPES (Thermo Fisher Scientific, cat. 15630080), 1X GlutaMAX supplement (Thermo Fisher Scientific, cat. 35050061), 0.1 mg/mL primocin (InvivoGen, cat. ant-pm-2), 10% defined fetal bovine serum, heat inactivated (HyClone Laboratories Inc., cat. SH30070.03HI), 50% L-WRN conditioned media (ATCC, cat. CRL-3276), 1.25 mM N-Acetyl-L-cysteine (Sigma-Aldrich, cat. A9165), 10 mM nicotinamide (Sigma-Aldrich, cat. N0636), 1X B-27 supplement (Thermo Fisher Scientific, cat. 17504044), 1X N-2 supplement (Thermo Fisher Scientific, cat. 17502048), 10 microM Y-27632 dihydrochloride (Tocris Bioscience, cat. 1254), and 50 ng/mL human EGF recombinant protein (Thermo Fisher Scientific, cat. PHG0311). The 485176-168-R4-J1-PDC line was cultured in Panc media, which includes all 6C/Colon 1B media components plus 100 ng/mL human FGF-10 (Thermo Fisher Scientific, cat. 100-26), 500 nM SB-431542 (Selleckchem, cat. S1067), and gastrin (Tocris, cat. 3006).
[…]

[1] = curve of first compound, second compound 0.0316 µM
[2] = curve of first compound, second compound 0.1 µM
[3] = curve of first compound, second compound 0.316 µM
[4] = curve of first compound, second compound 1 µM
[5] = curve of first compound, second compound 3.16 µM
[6] = curve of first compound, second compound 10 µM
[7] = second compound 0.0316 µM, first compound 0.0316 µM
[8] = second compound 0.0316 µM, first compound 0.1 µM
[9] = second compound 0.0316 µM, first compound 0.316 µM
[10] = second compound 0.0316 µM, first compound 1 µM
[11] = second compound 0.0316 µM, first compound 3.16 µM
[12] = second compound 0.0316 µM, first compound 10 µM
[13] = second compound 0.1 µM, first compound 0.0316 µM
[14] = second compound 0.1 µM, first compound 0.1 µM
[15] = second compound 0.1 µM, first compound 0.316 µM
[16] = second compound 0.1 µM, first compound 1 µM
[17] = second compound 0.1 µM, first compound 3.16 µM
[18] = second compound 0.1 µM, first compound 10 µM
[19] = second compound 0.316 µM, first compound 0.0316 µM
[20] = second compound 0.316 µM, first compound 0.1 µM
[21] = second compound 0.316 µM, first compound 0.316 µM
[22] = second compound 0.316 µM, first compound 1 µM
[23] = second compound 0.316 µM, first compound 3.16 µM
[24] = second compound 0.316 µM, first compound 10 µM
[25] = second compound 1 µM, first compound 0.0316 µM
[26] = second compound 1 µM, first compound 0.1 µM
[27] = second compound 1 µM, first compound 0.316 µM
[28] = second compound 1 µM, first compound 1 µM
[29] = second compound 1 µM, first compound 3.16 µM
[30] = second compound 1 µM, first compound 10 µM
[31] = second compound 3.16 µM, first compound 0.0316 µM
[32] = second compound 3.16 µM, first compound 0.1 µM
[33] = second compound 3.16 µM, first compound 0.316 µM
[34] = second compound 3.16 µM, first compound 1 µM
[35] = second compound 3.16 µM, first compound 3.16 µM
[36] = second compound 3.16 µM, first compound 10 µM
[37] = second compound 10 µM, first compound 0.0316 µM
[38] = second compound 10 µM, first compound 0.1 µM
[39] = second compound 10 µM, first compound 0.316 µM
[40] = second compound 10 µM, first compound 1 µM
[41] = second compound 10 µM, first compound 3.16 µM
[42] = second compound 10 µM, first compound 10 µM
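Also: spheroids exposed to compounds for seven days before readout.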
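For viability, T/C in this document: percent viability relative to DMSO vehicle control wells as 100%.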

C=CCn1c(=O)c2cnc(Nc3ccc(N4CCN(C)CC4)cc3)nc2n1-c1cccc(C(C)(C)O)n1
0.387 µM and 0.453 µM and 0.3 µM: IC50 (curve of compound)
inactive: viability, T/C (compound 0.0316 µM) 101% and 96.5% and 125% | viability, T/C (compound 0.1 µM) 85.2% and 103% and 79.7% | viability, T/C (compound 0.316 µM) 58% and 60.3% and 58.8% | viability, T/C (compound 1 µM) 20.7% and 23% and 14.2%
active: viability, T/C (compound 3.16 µM) 7.67% and 7.8% and 5.95% | viability, T/C (compound 10 µM) 5.42% and 4.01% and 4.35%

O=C(NO)c1cnc(N2CCN(S(=O)(=O)c3ccc4ccccc4c3)CC2)nc1 + Cc1[nH]c2ccc(F)cc2c1-c1nc2c3cccnc3c3ncccc3c2[nH]1
1.03 µM: IC50 [5]
0.597 µM: IC50 [2]
1.02 µM: IC50 [6]
active: viability, T/C [11] 0.24% | viability, T/C [12] 0.23% | viability, T/C [17] 0.3% | viability, T/C [18] 0.19% | viability, T/C [24] 0.18% | viability, T/C [29] 0.32% | viability, T/C [30] 0.18% | viability, T/C [35] 0.29% | viability, T/C [36] 0.21% | viability, T/C [41] 0.27% | viability, T/C [42] 0.37%
inactive: viability, T/C [7] 94.1% | viability, T/C [8] 86.3% | viability, T/C [9] 70.8% | viability, T/C [10] 21.8% | viability, T/C [13] 90.3% | viability, T/C [14] 98.4% | viability, T/C [15] 80.4% | viability, T/C [16] 25.1% | viability, T/C [19] 122% | viability, T/C [20] 87.5% | viability, T/C [21] 67.1% | viability, T/C [22] 42.8% | viability, T/C [23] 0.2% | viability, T/C [25] 94.2% | viability, T/C [26] 84.7% | viability, T/C [27] 68% | viability, T/C [28] 37.6% | viability, T/C [31] 87.9% | viability, T/C [32] 79.9% | viability, T/C [33] 73.5% | viability, T/C [34] 52.3% | viability, T/C [37] 88.2% | viability, T/C [38] 71.7% | viability, T/C [39] 75.6% | viability, T/C [40] 50.9%
0.511 µM: IC50 [1]
0.557 µM: IC50 [3]
0.592 µM: IC50 [4]

COc1ccc([C@@H](O)c2cc(-c3ncnc4cc(N5CCOCC5)ccc34)c(F)cc2Cl)nn1
2.72 µM and 4.6 µM and 3.81 µM: IC50 (curve of compound)
inactive: viability, T/C (compound 0.0316 µM) 89.1% and 113% and 89.2% | viability, T/C (compound 0.1 µM) 75.3% and 88.3% and 77.7% | viability, T/C (compound 0.316 µM) 87.5% and 97.3% and 96% | viability, T/C (compound 1 µM) 73.4% and 71.1% and 64.4% | viability, T/C (compound 3.16 µM) 46.6% and 64.8% and 57.1% | viability, T/C (compound 10 µM) 31.4% and 30% and 28.4%

C=CC(=O)N1CCN(c2nc(=O)n(-c3c(C)ccnc3C(C)C)c3nc(-c4c(O)cccc4F)c(F)cc23)C(C)C1 (stereo not drawn) + Cc1cnc(CNC(=O)c2c(=O)c3ccc(N4CCCN(C)CC4)nc3n3c2sc2ccccc23)cn1
inactive: viability, T/C [7] 108% | viability, T/C [8] 97.2% | viability, T/C [9] 111% | viability, T/C [10] 97.7% | viability, T/C [11] 114% | viability, T/C [12] 110% | viability, T/C [13] 67.5% | viability, T/C [14] 81.6% | viability, T/C [15] 86.7% | viability, T/C [16] 92.4% | viability, T/C [17] 96.4% | viability, T/C [18] 92.5% | viability, T/C [19] 63.8% | viability, T/C [20] 62.5% | viability, T/C [21] 83.7% | viability, T/C [22] 72.1% | viability, T/C [23] 81.6% | viability, T/C [24] 79.3% | viability, T/C [25] 58% | viability, T/C [26] 62.1% | viability, T/C [27] 80.1% | viability, T/C [28] 52.2% | viability, T/C [29] 61.1% | viability, T/C [30] 60.7% | viability, T/C [31] 49% | viability, T/C [32] 45.7% | viability, T/C [33] 46.9% | viability, T/C [34] 50.1% | viability, T/C [35] 54.6% | viability, T/C [36] 49.5% | viability, T/C [37] 43.6% | viability, T/C [38] 47.7% | viability, T/C [39] 51% | viability, T/C [40] 43.7% | viability, T/C [41] 49% | viability, T/C [42] 50.3%
> 10 µM: IC50 [1] | IC50 [2] | IC50 [3] | IC50 [4]
< 0.0316 µM: IC50 [5] | IC50 [6]
